# Experimental data published in patent US12240862B2, “Inhibitors of peptidylarginine deiminases” (Gilead Sciences, Inc., priority 2020, dated 2025).
# Target: T1, human PAD4 (Homo sapiens, UniProt Q9UM07)
# T1 construct: human PAD4 (NM_012387), A2P663, was PCR amplified; His-SUMO (N, cleaved yes); made in house; host or cells: E. coli BL21(DE3)
# Assay: In vitro PAD4 BAEE biochemical assay
# Settings: human PAD4, BAEE substrate; 5 nM PAD4, 2 mM calcium chloride, 3 mM BAEE; geometric mean of multiple experiments
# Procedure, shortened: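 Tag-free recombinant hPAD4 (5 nM), 2 mM CaCl2, 3 mM BAEE, 50 mM MOPS pH 7.6, 2 mM DTT; 30 min compound preincubation, 2 h reaction, all 25 °C. EDTA quench; ammonia read via o-phthalaldehyde amine coupling, 1 h.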
# T1 sequence (Q9UM07 2-663): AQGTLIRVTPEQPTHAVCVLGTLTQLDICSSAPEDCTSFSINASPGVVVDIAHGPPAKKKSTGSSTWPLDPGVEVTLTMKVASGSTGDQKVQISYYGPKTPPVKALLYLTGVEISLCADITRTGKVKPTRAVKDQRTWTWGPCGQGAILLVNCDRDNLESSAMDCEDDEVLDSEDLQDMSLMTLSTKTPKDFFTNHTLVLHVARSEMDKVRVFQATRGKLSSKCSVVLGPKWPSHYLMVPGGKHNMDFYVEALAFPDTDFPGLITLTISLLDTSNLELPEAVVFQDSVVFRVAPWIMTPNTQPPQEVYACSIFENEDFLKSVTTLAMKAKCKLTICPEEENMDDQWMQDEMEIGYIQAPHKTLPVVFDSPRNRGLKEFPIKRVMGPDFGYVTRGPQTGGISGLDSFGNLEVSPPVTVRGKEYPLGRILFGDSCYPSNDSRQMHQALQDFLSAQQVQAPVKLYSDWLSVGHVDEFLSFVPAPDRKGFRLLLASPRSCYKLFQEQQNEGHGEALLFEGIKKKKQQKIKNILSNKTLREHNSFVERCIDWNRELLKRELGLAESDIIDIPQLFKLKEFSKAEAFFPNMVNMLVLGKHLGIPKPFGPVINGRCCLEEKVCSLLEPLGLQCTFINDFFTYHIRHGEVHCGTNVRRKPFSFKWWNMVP
row,Structure (SMILES),IC50 [nM]
1,"COc1cc(C(=O)N2[C@H]3CC[C@@H]2[C@H](N)C3)cc2nc(-c3cc4ccc([C@@H](C)NC(=O)CCN5C(=O)NC(C)(C)C5=O)nc4n3CC3CC3)c(C)n12 [Example 148, ~{N}-[(1~{R})-1-[2-[7-[(1~{R},2~{R},4~{S})-2-amino-7-azabicyclo[2.2.1]heptane-7-carbonyl]-5-methoxy-3-methylimidazo [1,2-a]pyridin-2-yl]-1-(cyclopropylmethyl)pyrrolo [2,3-b]pyridin-6-yl]ethyl]-3-(4,4-dimethyl-2,5-dioxoimidazolidin-1-yl)propenamide]",56.2
2,"COc1cc(C(=O)N2[C@H]3CC[C@@H]2[C@H](N)C3)cc2nc(-c3cc4ccc(N5CCCCCS5(=O)=O)nc4n3CC3CC3)c(C)n12 [Example 459, [(1~{R},2~{R},4~{S})-2-amino-7-azabicyclo [2.2.1]heptan-7-yl]-[2-[1-(cyclopropylmethyl)-6-(1,1-dioxothiazepan-2-yl)pyrrolo[2,3-b]pyridin-2-yl]-5-methoxy-3-methylimidazo[1,2-a]pyridin-7-yl]methanone]",28
3,"COc1cc(C(=O)N2CCC[C@@H](N)CC2)cc2nc(-c3cc4ccc([C@@H](C)NC(=O)C56CC(F)(C5)C6)nc4n3CC3CC3)c(C)n12 [Example 38, ~{N}-[(1~{R})-1-[2-[7-[(4~{R})-4-aminoazepane-1-carbonyl]-5-methoxy-3-methylimidazo[1,2-a]pyridin-2-yl]-1-(cyclopropylmethyl)pyrrolo[2,3-b]pyridin-6-yl]ethyl]-3-fluorobicyclo[1.1.1] pentane-1-carboxamide]",30600
4,"COc1cc(C(=O)N2[C@H]3CC[C@@H]2[C@H](N)C3)cc2nc(-c3cc4ccc(C5=CC(=O)N(C)CC5)nc4n3CC3CC3)c(C)n12 [Example 558, 4-[2-[7-[(1~{R},2~{R}, 4~{S})-2-amino-7-azabicyclo[2.2.1]heptane-7-carbonyl]-5-methoxy-3-methylimidazo[1,2-a]pyridin-2-yl]-1-(cyclopropylmethyl)pyrrolo [2,3-b]pyridin-6-yl]-1-methyl-2,3-dihydropyridin-6-one]",220
5,"COc1cc(C(=O)N2[C@H]3CC[C@@H]2[C@H](N)C3)cc2nc(-c3cc4ccc([C@@H](C)NC(=O)N5CC6CC(C5)O6)nc4n3CC3CC3)c(C)n12 [Example 211, ~{N}-[(1~{R})-1-[2-[7-[(1~{R},2~{R},4~{S})-2-amino-7-azabicyclo[2.2.1]heptane-7-carbonyl]-5-methoxy-3-methylimidazo [1,2-a]pyridin-2-yl]-1-(cyclopropylmethyl)pyrrolo [2,3-b]pyridin-6-yl]ethyl]-6-oxa-3-azabicyclo [3.1.1]heptane-3-carboxamide]",31.6
6,"COc1cc(C(=O)N2[C@H]3CC[C@@H]2[C@H](N)C3)cc2nc(-c3cc4ccc([C@@H](C)NC(=O)N5CC6CC6C5)nc4n3CC3CC3)c(C)n12 (some centres unmarked) [Example 246, ~{N}-[(1~{R})-1-[2-[7-[(1~{R},2~{R},4~{S})-2-amino-7-azabicyclo[2.2.1]heptane-7-carbonyl]-5-methoxy-3-methylimidazo [1,2-a]pyridin-2-yl]-1-(cyclopropylmethyl)pyrrolo [2,3-b]pyridin-6-yl]ethyl]-3-azabicyclo[3.1.0]hexane-3-carboxamide]",82.2
7,"COc1cc(C(=O)N2[C@H]3CC[C@@H]2[C@H](N)C3)cc2nc(-c3cc4ccc(-c5ccccc5C)nc4n3CC3CC3)c(C)n12 [Example 550, [(1~{R},2~{R},4~{S})-2-amino-7-azabicyclo [2.2.1]heptan-7-yl]-[2-[1-(cyclopropylmethyl)-6-(2-methylphenyl)pyrrolo [2,3-b]pyridin-2-yl]-5-methoxy-3-methylimidazo [1,2-a]pyridin-7-yl]methanone]",1850
8,"COc1cc(C(=O)N2[C@H]3CC[C@@H]2[C@H](N)C3)cc2nc(-c3cc4ccc(C5CCN(C(=O)C(C)(C)C)C5)nc4n3CC3CC3)c(C)n12 (some centres unmarked) [Example 530, 1-[3-[2-[7-[(1~{R},2~{R}, 4~{S})-2-amino-7-azabicyclo[2.2.1]heptane-7-carbonyl]-5-methoxy-3-methylimidazo[1,2-a]pyridin-2-yl]-1-(cyclopropylmethyl)pyrrolo [2,3-b]pyridin-6-yl]pyrrolidin-1-yl]-2,2-dimethylpropan-1-one]",274
9,"COc1cc(C(=O)N[C@H]2CNC[C@@H](F)C2)cc2nc(-c3cc4ccc(N(C(F)F)S(C)(=O)=O)nc4n3CC3CC3)c(C)n12 [Example 307, 2-[1-(cyclopropylmethyl)-6-[difluoromethyl (methylsulfonyl)amino]pyrrolo[2,3-b]pyridin-2-yl]-~{N}-[(3~{R},5~{S})-5-fluoropiperidin-3-yl]-5-methoxy-3-methylimidazo [1,2-a]pyridine-7-carboxamide]",25600
10,"CCc1ccc2cc(-c3nc4cc(C(=O)N5[C@H]6CC[C@@H]5[C@H](N)C6)cc(OC)n4c3C)n(-c3nccs3)c2n1 [Example 510, [(1~{R},2~{R},4~{S})-2-amino-7-azabicyclo [2.2.1]heptan-7-yl]-[2-[6-ethyl-1-(1,3-thiazol-2-yl)pyrrolo[2,3-b]pyridin-2-yl]-5-methoxy-3-methylimidazo[1,2-a]pyridin-7-yl]methanone]",17100
11,"COc1cc(C(=O)N2[C@H]3CC[C@@H]2[C@H](N)C3)cc2nc(-c3cc4ccc(N5CCNCCS5(=O)=O)nc4n3CC3CC3)c(C)n12 [Example 450, [(1~{R},2~{R},4~{S})-2-amino-7-azabicyclo [2.2.1]heptan-7-yl]-[2-[1-(cyclopropylmethyl)-6-(1,1-dioxo-1,2,5-thiadiazepan-2-yl)pyrrolo[2,3-b]pyridin-2-yl]-5-methoxy-3-methylimidazo[1,2-a]pyridin-7-yl]methanone]",21.6
12,"COc1cc(C(=O)N2[C@H]3CC[C@@H]2[C@H](N)C3)cc2nc(-c3cc4ccc([C@@H](C)NC(=O)c5ccccc5C(F)F)nc4n3CC3CC3)c(C)n12 [Example 11, ~{N}-[(1~{R})-1-[2-[7-[(1~{R},2~{R},4~{S})-2-amino-7-azabicyclo [2.2.1]heptane-7-carbonyl]-5-methoxy-3-methylimidazo [1,2-a]pyridin-2-yl]-1-(cyclopropylmethyl)pyrrolo[2,3-b]pyridin-6-yl]ethyl]-2-(difluoromethyl) benzamide]",253
13,"COc1cc(C(=O)N2[C@H]3CC[C@@H]2[C@H](N)C3)cc2nc(-c3cc4ccc(-c5cccnc5C)nc4n3CC3CC3)c(C)n12 [Example 575, ((1R,2R,4S)-2-amino-7-azabicyclo[2.2.1]heptan-7-yl)(2-(1-(cyclopropylmethyl)-6-(2-methylpyridin-3-yl)-1H-pyrrolo[2,3-b]pyridin-2-yl)-5-methoxy-3-methylimidazo[1,2-a]pyridin-7-yl)methanone]",130
14,"COc1cc(C(=O)N2[C@H]3CC[C@@H]2[C@H](N)C3)cc2nc(-c3cc4ccc([C@@H](C)NC(=O)C56CC(c7ccccc7)(C5)C6)nc4n3CC3CC3)c(C)n12 [Example 147, ~{N}-[(1~{R})-1-[2-[7-[(1~{R},2~{R},4~{S})-2-amino-7-azabicyclo[2.2.1]heptane-7-carbonyl]-5-methoxy-3-methylimidazo [1,2-a]pyridin-2-yl]-1-(cyclopropylmethyl)pyrrolo [2,3-b]pyridin-6-yl]ethyl]-3-phenylbicyclo[1.1.1]pentane-1-carboxamide]",403
